Measurements: paper PMC7613998, “Development of selective inhibitors of phosphatidylinositol 3-kinase C2α” (Nature Chemical Biology, 2022)

Molecular target: T1, PI3KC2α (Homo sapiens, UniProt O00443)
T1 construct: gene PIK3C2A; human PI3KC2α^ΔN (amino acids 376–1686)
Assay: ADP-Glo lipid kinase assay with PI as substrate
Format: biochemical

T1 sequence (O00443 376-1686): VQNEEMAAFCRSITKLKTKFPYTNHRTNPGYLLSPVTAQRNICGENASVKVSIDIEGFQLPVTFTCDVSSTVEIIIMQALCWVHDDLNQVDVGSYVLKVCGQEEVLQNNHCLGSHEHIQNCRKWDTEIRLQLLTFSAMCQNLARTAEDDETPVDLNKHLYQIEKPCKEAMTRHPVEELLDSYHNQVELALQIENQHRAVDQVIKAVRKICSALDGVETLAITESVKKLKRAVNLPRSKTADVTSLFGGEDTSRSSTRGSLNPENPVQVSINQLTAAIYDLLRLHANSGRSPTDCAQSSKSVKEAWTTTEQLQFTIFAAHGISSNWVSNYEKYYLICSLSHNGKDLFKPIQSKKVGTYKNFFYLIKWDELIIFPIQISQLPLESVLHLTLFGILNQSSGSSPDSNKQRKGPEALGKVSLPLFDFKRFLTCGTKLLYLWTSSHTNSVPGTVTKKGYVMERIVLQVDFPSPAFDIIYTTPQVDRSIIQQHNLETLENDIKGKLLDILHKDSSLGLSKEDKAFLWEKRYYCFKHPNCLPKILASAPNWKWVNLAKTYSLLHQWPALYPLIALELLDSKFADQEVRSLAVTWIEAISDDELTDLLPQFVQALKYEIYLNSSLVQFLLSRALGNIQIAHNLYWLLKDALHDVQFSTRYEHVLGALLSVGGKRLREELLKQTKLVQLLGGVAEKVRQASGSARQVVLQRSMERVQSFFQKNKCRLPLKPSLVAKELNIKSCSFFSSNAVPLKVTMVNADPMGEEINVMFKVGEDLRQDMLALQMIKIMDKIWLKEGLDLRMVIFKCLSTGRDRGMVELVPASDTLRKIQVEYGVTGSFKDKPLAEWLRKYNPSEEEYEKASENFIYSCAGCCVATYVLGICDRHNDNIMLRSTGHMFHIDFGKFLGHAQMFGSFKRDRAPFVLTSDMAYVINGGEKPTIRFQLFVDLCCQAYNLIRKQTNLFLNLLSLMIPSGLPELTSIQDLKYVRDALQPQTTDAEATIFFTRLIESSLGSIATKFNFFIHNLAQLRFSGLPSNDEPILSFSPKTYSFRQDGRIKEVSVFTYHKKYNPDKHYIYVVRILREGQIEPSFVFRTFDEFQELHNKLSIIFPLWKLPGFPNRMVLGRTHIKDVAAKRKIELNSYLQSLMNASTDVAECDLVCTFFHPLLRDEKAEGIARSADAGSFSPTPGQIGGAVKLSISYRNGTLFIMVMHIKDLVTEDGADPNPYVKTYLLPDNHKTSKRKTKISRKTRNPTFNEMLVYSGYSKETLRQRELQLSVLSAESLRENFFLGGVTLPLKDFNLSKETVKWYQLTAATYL

IC50: 2600 nM
Structure (SMILES): CC(C)CCn1c(SCC(=O)Nc2ccccc2C(F)(F)F)nc2nccnc2c1=O [compound 4]
